# From patent publication US4868195A, “Novel enolamides, pharmaceutical compositions and methods of use thereof for activity as modulators of the arachidonic acid cascade” (Warner-Lambert Company, priority 1988, dated 1989)
# Where “and” joins values, the source holds several entries; their conditions need not be identical. Equal values may be shown once.
# Biological target: T1, 5-lipoxygenase (Homo sapiens, UniProt P09917)
# T1 construct: endogenous in cells; host or cells: intact leukocytes isolated from human blood
# T1 sequence (P09917 1-674): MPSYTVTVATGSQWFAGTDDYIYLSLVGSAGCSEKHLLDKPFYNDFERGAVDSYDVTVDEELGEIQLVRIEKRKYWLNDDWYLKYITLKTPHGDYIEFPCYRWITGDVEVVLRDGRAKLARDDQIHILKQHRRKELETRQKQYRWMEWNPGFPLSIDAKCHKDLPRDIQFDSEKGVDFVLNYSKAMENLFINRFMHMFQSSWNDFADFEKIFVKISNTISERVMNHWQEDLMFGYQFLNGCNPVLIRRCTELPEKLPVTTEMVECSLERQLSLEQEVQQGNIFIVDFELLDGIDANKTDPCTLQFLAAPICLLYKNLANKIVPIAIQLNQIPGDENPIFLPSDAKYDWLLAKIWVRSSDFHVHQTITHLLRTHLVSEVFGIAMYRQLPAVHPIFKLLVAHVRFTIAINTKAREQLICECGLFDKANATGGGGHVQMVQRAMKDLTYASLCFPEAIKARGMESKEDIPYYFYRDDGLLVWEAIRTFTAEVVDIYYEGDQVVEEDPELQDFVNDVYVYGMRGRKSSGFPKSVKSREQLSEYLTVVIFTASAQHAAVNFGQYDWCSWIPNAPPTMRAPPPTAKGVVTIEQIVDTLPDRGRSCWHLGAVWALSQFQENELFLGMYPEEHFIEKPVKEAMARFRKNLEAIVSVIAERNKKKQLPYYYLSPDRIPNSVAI
# Experiment: 5-Lipoxygenase Assay Using Isolated Human Leukocytes (5LOA2)
# Type: cell-based
# Conditions: 5-HETE formation, HPLC, read-out: Concentration (M) for 50.0 % Inhibition, IC (5LOA2)
# Protocol: 5-Lipoxygenase Assay Using Isolated Human Leukocytes (5LOA2)
# The formation of 5-HETE in human leukocytes is considered a measure of 5-lipoxygenase activity. The protocol is described in the following.
# Fresh heparinized or EDTA treated human blood is mixed with 6% dextran-3% dextrose in isotonic saline in the ratio 0.25 ml dextran solution per 1.0 ml blood. After mixing the blood is allowed to sit at room temperature for about 90 minutes while the RBC's settle. During this period, the plasma is removed with a plastic pepette to nalgens tubes.
# The plasma is centrifuged at 800 rpm ([…]) on the Beckman Td-b refrigerated centrifuge to remove the platelets (which remain in the supernatant). The pellet, consisting of leukocytes and erythrocytes, is treated with 10 ml 0.87% ammonium chloride at room temperature for four minutes, lysing the red cells. At the end of four minutes the cells are diluted with a 2x volume of phosphate buffered saline, pH 7.4, and centrifuged for ten minutes. The cells are washed three times with the phosphate buffered saline. […]
# A portion of the ethanol solution is injected into the HPLC system for 5-HETE quantitation.
# The HPLC system consists of Hewlett-Packard 1040A UV spectrophotometry system with an HP85 computer. […] Peaks are measured with a Hewlett Packard 3390A integrator. […] The flow is monitored at 235 nm for 5-HETE quantitation. […]
row,IC50,Structure (SMILES)
1,8.4e-06 M,"O=C(Nc1ccccc1Cc1ccc(Cl)c(Cl)c1)C1=C(O)c2ccccc2S(=O)(=O)C1 [Example 81, 2H-1-Benzothiopyran-3-carboxamide, N-[2-[(3,4-dichlorophenyl)methyl]phenyl]-4-hydroxy, 1,1-dioxide]"
2,5e-06 M and 4.6e-06 M,"O=C(Nc1ccccc1CCc1ccc(Cl)c(Cl)c1)C1=C(O)c2ccccc2S(=O)(=O)C1 [Example 8, N-[2-[2-(3,4-Dichlorophenyl)ethyl]phenyl]-4-hydroxy-2H-1-benzothiopyran-3-carboxamide, 1,1-dioxide]"
